Values quoted from earlier work in patent publication US12194073B1, “Method of arthropod egress” (priority 2023, dated 2025).
Where two headings read alike, the source gives them in different places. Blank lines part the entries; values can stand above or below the molecule they belong to.

Tests used:
[1] = for drug payload: solution in squalane, with/without mineral oil
[2] = solution in SFA (F4H5)
[3] = not given; remark: listed apart in the source
[4] = for shelf stability at ambient temperature: suspension in vegetable oils, glycerol, mineral oil and white petrolatum
[5] = self-emulsifying system; corn oil, PEG-6 esters, Tween 80 and Transcutol
[6] = for therapeutic effect: suspension in vegetable oils, glycerol, mineral oil and white petrolatum
[7] = for ocular adverse effects: suspension in vegetable oils, glycerol, mineral oil and white petrolatum
Demodex folliculorum = conditions: all three concentrations; in vitro; vs 5% permethrin
[8] = not given; remark: listed apart in the source
[9] = squalane, with/without mineral oil, as vehicle
[10] = self-emulsifying system, corn oil, PEG-6 esters, Tween 80 and Transcutol
[11] = solution in DMSO and castor oil
[12] = oleogel, soyabean oil, beeswax and gelator
[13] = self-emulsifying system, Capmul MCM, Cremophor RH 40, Transcutol and hydroxypropylmethyl cellulose
[14] = self-emulsifying system, S-protected thiolated Eudragit L100-55-BAK ion pair, Labrafil M 1944CS
[15] = suspension in sesame seed oil vs high-dose viscous aqueous formulation

- precorneal drainage (self-emulsifying system, linoleic acid, Cremophor RH 40 and propylene glycol): reduced
Molecule: C[C@]12C=CC(=O)C=C1CC[C@@H]1[C@@H]2[C@@H](O)C[C@@]2(C)[C@H]1CC[C@]2(O)C(=O)CO [Prednisolone]
- drug payload [1]: high drug payload; potential to reduce dosing

Molecule: C=CC[C@@H]1/C=C(\C)C[C@H](C)C[C@H](OC)[C@H]2O[C@@](O)(C(=O)C(=O)N3CCCC[C@H]3C(=O)O[C@H](/C(C)=C/[C@@H]3CC[C@@H](O)[C@H](OC)C3)[C@H](C)[C@@H](O)CC1=O)[C@H](C)C[C@@H]2OC [Tacrolimus]
- clinical signs of uveitis [2]: Significant improvement in clinical signs of uveitis;
- intraocular penetration (solution in SFA (F4H5) vs aqueous suspension): greater intraocular penetration than aqueous

Molecule: C[C@]12CCC(=O)C=C1CC[C@@H]1[C@@H]2[C@@H](O)C[C@@]2(C)[C@H]1CC[C@]2(O)C(=O)CO [Hydrocortisone]
- drug payload [1]: high drug payload; potential to reduce dosing

Molecule: O=C(O)c1cn(C2CC2)c2cc(N3CCNCC3)c(F)cc2c1=O [ciprofloxacin]
- drug payload [1]: high drug payload; potential to reduce dosing

Molecule: CC[C@@H]1/C=C(\C)C[C@H](C)C[C@H](OC)[C@H]2O[C@@](O)(C(=O)C(=O)N3CCCC[C@H]3C(=O)O[C@H](/C(C)=C/[C@@H]3CC[C@H](Cl)[C@H](OC)C3)[C@H](C)[C@@H](O)CC1=O)[C@H](C)C[C@@H]2OC [Pimecrolimus]
- drug payload [1]: high drug payload; potential to reduce dosing
- safety ([3]; dog, in vivo): Better
- clinical outcomes ([3]; solution in corn oil vs ointments, dogs with DED): Better clinical outcomes

- drug stability [4, 10]: Improved
- drug release [1, 10]: rapid
Molecule: CC(C)N1CCN(c2ccc(OCC3COC(Cn4cncn4)(c4ccc(Cl)cc4Cl)O3)cc2)CC1 (stereo not drawn) [Terconazole]
- conjunctival irritation in vitro [5]: no

Molecule: CC(C)OC(=O)CCC/C=C\C[C@@H]1[C@@H](CC[C@@H](O)CCc2ccccc2)[C@H](O)C[C@@H]1O [Latanoprost]
- Clinical efficacy ([6]; solution in SFA (F4H5, F6H8) at relatively lower dose vs marketed aqueous eyedrops): Clinical efficacy comparable to marketed aqueous
- bioavailability (solution in SFA (F4H5, F6H8)): eyedrops at relatively lower dose; improved

Molecule: CC[C@H]1OC(=O)[C@H](C)[C@@H](O[C@H]2C[C@@](C)(OC)[C@@H](O)[C@H](C)O2)[C@H](C)[C@@H](O[C@@H]2O[C@H](C)C[C@H](N(C)C)[C@H]2O)[C@](C)(O)C[C@@H](C)CN(C)[C@H](C)[C@@H](O)[C@]1(C)O [Azithromycin]
- adverse events (if any) in clinical trials ([7]; Azyter, solution in MCT): mild to moderate
- tolerability ([7]; Azyter, solution in MCT): well tolerated

Molecule: O=C(O)c1cccc(-c2noc(-c3ccccc3F)n2)c1 [Ataluren]
- Sterility [4, 11]: Sterility maintained and drug degradation
- drug degradation [4, 11]: inhibited; no penetration studies performed

Molecule: CN[C@H](CC(C)C)C(=O)N[C@H]1C(=O)N[C@@H](CC(N)=O)C(=O)N[C@H]2C(=O)N[C@H]3C(=O)N[C@H](C(=O)N[C@H](C(=O)O)c4cc(O)cc(O)c4-c4cc3ccc4O)[C@H](O)c3ccc(c(Cl)c3)Oc3cc2cc(c3O[C@@H]2O[C@H](CO)[C@@H](O)[C@H](O)[C@H]2O[C@H]2C[C@](C)(N)[C@H](O)[C@H](C)O2)Oc2ccc(cc2Cl)[C@H]1O [Vancomycin]
- drug release [1, 12]: Extended
- release profile and oleogel texture [1, 12]: customisable

Molecule: O=C(O)CCCCCCCC(=O)O [azelaic acid]
- anti-Demodex efficacy (Demodex folliculorum): comparable to that of 5% permethrin

Molecule: ivermectin
- solubility among the oils tested [8]: highest solubility in tea tree oil followed by ethylbutanoate

Molecule: Clc1ccc(COC(Cn2ccnc2)c2ccc(Cl)cc2Cl)cc1 (stereo not drawn) [Econazole nitrate]
- onset of action [6, 13]: faster
- penetration [13]: Enhanced
- in vitro and in vivo safety [7, 13]: acceptable in vitro and in vivo safety
- in vitro release profile [1, 14]: good in vitro release profile; no in vivo studies
- mucoadhesion [1, 14]: Mucoadhesive
- sustained drug release over [1, 14]: 8 h

Molecule: Cc1ccccc1N1CCN(CCc2nnc3n2CCCC3)CC1 [dapiprazole]
- therapeutic effect [6]: Improved
- shelf stability at ambient temperature [4]: adverse effects; improved shelf stability at ambient
- ocular adverse effects [7]: reduced

- drug release [1, 12]: Extended
- release profile and oleogel texture [1, 12]: customisable
Molecule: C[C@]12C=CC(=O)C=C1CC[C@H]1[C@@H]3C[C@@H](O)[C@](O)(C(=O)CO)[C@@]3(C)C[C@H](O)[C@@]12F [triamcinolone]

Molecule: CC(C)CCCC(C)CCCC(C)CCCCC(C)CCCC(C)CCCC(C)C (stereo not drawn) [Squalane]
- symptomatic relief in DED (vehicle) [9]: Vehicle beneficial for symptomatic relief in DED;

Molecule: CC[C@@H]1C(=O)OC[C@@H]1Cc1cncn1C [Pilocarpine]
- therapeutic effect [6]: Improved
- shelf stability at ambient temperature [4]: adverse effects; improved shelf stability at ambient
- ocular adverse effects [7]: reduced

Molecule: CNC[C@H](O)c1cccc(O)c1 [Phenylephrine]
- onset of action [6, 15]: Faster
- therapeutic response [6, 15]: higher
